From patent EP4763847A1 (Jiangsu Yahong Meditech Co., Ltd., priority 2023, dated 2025) come the findings set out here.

A word on the IC50: it is the concentration at which inhibition is half-maximal.

One assay deals with HCT116 MTAP KO. The assay is described as follows: Cell proliferation inhibition (CellTiter Glo), HCT116 MTAP KO cells. Format: cell-based. The note with it: Homo sapiens, HCT-116, 144 h, cultured 6 days with compound. How it is done: (§1) Test Example 2: Test of cell proliferation inhibition activity of the compounds
(§2) HCT116-WT (ATCC, CCL-247) and HCT116 MTAP KO (Cobioer Nanjing, CBP75002) cells were seeded into white low-transparency 96-well sterile cell culture plates at a density of 250 cells per well, respectively. The culture medium was McCoy's 5A Medium + 10% FBS. The plates were incubated overnight at 37°C with 5% CO2. The cells were treated with compounds gradiently with an initial concentration of 10000 nM, 4-fold dilution, and 8 concentration points. The last two columns were control wells with only DMSO added. The treated cells were continued to be cultured for 6 days. On the seventh day, 50 µL of CellTiter Glo® reagent was added to each well. After reacting on a shaker at room temperature for 10 minutes, the chemiluminescence signal in the plate was detected using the chemiluminescence detection method on a BIOTEK H1 multi-mode plate reader. […] Table 2: IC50 values of compounds for HCT116 MTAP KO/WT cell growth inhibition
For orientation: In ATP-based viability assays light output follows the ATP content of the culture.

Another assay relates to HCT116-WT. Put plainly: Cell proliferation inhibition (CellTiter Glo), HCT116-WT cells. The note with it: 144 h, cultured 6 days with compound. Format: cell-based. How it is done: as §1, §2
Another assay concerns the target PRMT5-MTA (Homo sapiens, UniProt O14744). Put plainly: biochemical. The note with it: IC50 (nM), PRMT5+MTA enzyme activity inhibition; PRMT5/MET50 protein 1 nM, 5'-deoxy-5'-adenosine 1 µM, SAM 2.5 µM, Histone H4 substrate 5 nM.

The structures appear in SMILES notation.

PRMT5-MTA, sequence (O14744 whole entry): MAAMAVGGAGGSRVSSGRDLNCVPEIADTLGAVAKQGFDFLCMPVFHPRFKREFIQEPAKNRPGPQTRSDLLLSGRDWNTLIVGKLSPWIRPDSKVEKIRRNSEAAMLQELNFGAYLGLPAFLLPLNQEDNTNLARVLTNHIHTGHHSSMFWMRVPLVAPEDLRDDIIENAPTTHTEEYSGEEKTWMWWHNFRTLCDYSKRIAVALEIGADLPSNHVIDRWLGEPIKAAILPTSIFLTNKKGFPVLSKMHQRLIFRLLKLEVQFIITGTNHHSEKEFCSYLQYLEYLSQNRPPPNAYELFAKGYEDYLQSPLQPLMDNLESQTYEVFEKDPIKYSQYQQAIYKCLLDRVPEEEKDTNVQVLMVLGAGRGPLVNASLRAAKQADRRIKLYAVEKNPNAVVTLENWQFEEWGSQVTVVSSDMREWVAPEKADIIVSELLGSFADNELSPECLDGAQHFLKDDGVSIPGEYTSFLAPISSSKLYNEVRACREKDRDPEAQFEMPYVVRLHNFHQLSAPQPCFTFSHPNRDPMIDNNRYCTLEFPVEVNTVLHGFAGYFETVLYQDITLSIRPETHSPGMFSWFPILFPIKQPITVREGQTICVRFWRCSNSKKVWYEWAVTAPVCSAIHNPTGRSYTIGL
PRMT5-MTA, sequence (Q9BQA1 whole entry partner): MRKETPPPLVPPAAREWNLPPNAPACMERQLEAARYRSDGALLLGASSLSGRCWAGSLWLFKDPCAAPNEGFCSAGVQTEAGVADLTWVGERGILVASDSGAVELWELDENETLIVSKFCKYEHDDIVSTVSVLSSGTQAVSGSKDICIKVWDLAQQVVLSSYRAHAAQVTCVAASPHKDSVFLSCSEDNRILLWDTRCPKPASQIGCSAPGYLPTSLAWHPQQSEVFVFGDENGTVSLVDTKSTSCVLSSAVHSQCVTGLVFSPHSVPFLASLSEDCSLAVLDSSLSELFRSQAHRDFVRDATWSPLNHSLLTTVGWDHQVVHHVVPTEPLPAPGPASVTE
Protocol for PRMT5-MTA: The enzymatic inhibition activity of the compounds against PRMT5-MTA was detected using the AlphaScreen method. A 1× methyltransferase assay buffer IV (Signalchem) was prepared as a dilution solution for each component of the enzymatic reaction. […] The test compounds were added to all wells except the control wells in a 3-fold dilution series of 10 concentration points starting from 1000 nM using a Tecan D300e. After centrifugation at 1000 rpm for 1 minute in a centrifuge, the plate was incubated at 23°C for 15 minutes. Histone H4 substrate at a final concentration of 5 nM was added to the plate at 4 µL per well. After centrifugation at 1000 rpm for 1 minute in a centrifuge, the plate was reacted in an incubator at 23°C for 45 minutes. Anti-Histone H4 (symmetric dimethyl R3) antibody (Abcam) was pre-incubated with 50 µg/mL AlphaScreen Protein A Acceptor beads (PerkinElmer) at room temperature for 10 minutes, and then added to the plate in a volume of 10 µL per well, followed by reaction at room temperature for 1 hour. 10 µL of 50 µg/mL AlphaScreen Streptavidin Donor beads (PerkinElmer) were added to each well, and reacted at room temperature for 1 hour. The signal values in the plate were detected using the Alpha method on an Envision multi-mode plate reader. The IC50 values of the compounds for PRMT5/MET50 enzyme activity inhibition were calculated in Xlfit 5.0 software.

Take `CNC(N)=Nc1ccc(C(=O)N(Cc2ccc(C(F)(F)F)cn2)C(C)C2CC2)cn1` (stereo not drawn) [Compound 33]: the IC50 worked out at 279 nM in the assay on HCT116 MTAP KO, 4000 nM with HCT116-WT and 1 nM on PRMT5-MTA.

Turning to `CNC(N)=Nc1ccc(C(=O)N(Cc2ccc(C(F)(F)F)cn2)C(C)c2ncccn2)cn1` (stereo not drawn) [Compound 1], the IC50 stood at 150 nM in the assay on HCT116 MTAP KO, 2250 nM in the assay with HCT116-WT and 1.7 nM at PRMT5-MTA.

For the molecule `CNC(N)=Nc1ccc(C(=O)N(Cc2ccc(-c3cnn(C(F)(F)F)c3)cn2)[C@H](C)c2ccccc2F)cn1` [Compound 69], the results for the IC50 in the assay with HCT116 MTAP KO, with HCT116-WT and on PRMT5-MTA were 50 nM, 643 nM and 4.8 nM, respectively.

Regarding `CN/C(N)=N\c1ccc(C(=O)N(Cc2ccc(OC(F)(F)F)cn2)[C@H](C)c2ccccc2F)cn1` [Compound 77, (R,Z)-6-((amino(methylamino)methylene)amino)-N-(1-(2-fluorophenyl)ethyl)-N-((5-(trifluoromethoxy)pyridin-2-yl)methyl)nicotinamide], the IC50 with HCT116 MTAP KO is 28 nM; in the assay with HCT116-WT, 330 nM; at PRMT5-MTA it was 4 nM.

As for `CNC(N)=Nc1ccc(C(=O)N(Cc2ccccc2)[C@H](C)c2ccccc2F)cn1` [Compound 99], the IC50 in the assay on HCT116 MTAP KO is 445 nM; with HCT116-WT it was 3330 nM; on PRMT5-MTA it was 4.6 nM.

Consider `CNC(N)=Nc1ccc(C(=O)N(Cc2ccc(C(F)(F)F)cn2)c2csc3cccnc23)cn1` [Compound 51], for which the IC50 was 51 nM in the assay on HCT116 MTAP KO, 618 nM with HCT116-WT and 2.6 nM at PRMT5-MTA.

Turning to `CNC(N)=Nc1ccc(C(=O)N(Cc2ccc(C(F)(F)F)cn2)[C@H](C)c2ccccc2F)cn1` [Compound 89], the IC50 in the assay with HCT116 MTAP KO worked out at 12 nM; in the assay with HCT116-WT it was 421 nM; against PRMT5-MTA it was 0.6 nM.

As to `CNC(N)=Nc1ccc(C(=O)N(Cc2ccc(C(F)(F)F)cn2)C(C)c2ccccc2C(F)(F)F)cn1` (stereo not drawn) [Compound 115], the IC50 in the assay on HCT116 MTAP KO was found to be 942 nM; in the assay on HCT116-WT, 3180 nM; against PRMT5-MTA, 0.9 nM.

Turning to `CC(c1ncccn1)N(Cc1ccc(C(F)(F)F)cn1)C(=O)c1ccc(N=C(N)NO)nc1` (stereo not drawn) [Compound 12], the IC50 with HCT116 MTAP KO amounted to 55 nM; in the assay on HCT116-WT, 210 nM; against PRMT5-MTA, 3 nM.

Take `CNC(N)=Nc1ccc(C(=O)N(Cc2ccc(C(F)(F)F)cn2)C(C)c2ccccc2)cn1` (stereo not drawn) [Compound 32]: the IC50 in the assay with HCT116 MTAP KO was found to be 114 nM; in the assay with HCT116-WT, 1890 nM; against PRMT5-MTA it was 1.5 nM.

Regarding `CNC(N)=Nc1ccc(C(=O)N(Cc2ccc3ccsc3c2)[C@H](C)c2ccccc2F)cn1` [Compound 105], the IC50 with HCT116 MTAP KO amounted to 263 nM; in the assay with HCT116-WT, 2230 nM; against PRMT5-MTA, 5.7 nM.

Regarding `CN/C(N)=N\c1ccc(C(=O)N(Cc2ccc3nn(C)cc3c2)[C@H](C)c2ccccc2F)cn1` [Compound 97, (R,Z)-6-((amino(methylamino)methylene)amino)-N-(1-(2-fluorophenyl)ethyl)-N-((2-methyl-2H-indazol-5-yl)methyl)nicotinamide], the IC50 in the assay with HCT116 MTAP KO was determined as 353 nM; in the assay on HCT116-WT it was 5700 nM; at PRMT5-MTA, 3.1 nM.

For `CN/C(N)=N\c1ccc(C(=O)N(Cc2ccc(C(F)(F)F)cn2)[C@H]2CCCc3ccccc32)cn1` [Compound 114, (S,Z)-6-((amino(methylamino)methylene)amino)-N-(1,2,3,4-tetrahydronaphthalen-1-yl) -N-((5-(trifluoromethyl)pyridin-2-yl)methyl)nicotinamide], the IC50 in the assay on HCT116 MTAP KO worked out at 612 nM; in the assay on HCT116-WT it was 2970 nM; on PRMT5-MTA it was 3.2 nM.

As to `CNC(N)=Nc1ccc(C(=O)N(Cc2ccc(-c3cnn(C)c3)cn2)[C@H](C)c2ccccc2F)cn1` [Compound 129], the IC50 is 233 nM in the assay with HCT116 MTAP KO, 2520 nM in the assay with HCT116-WT and 5.4 nM against PRMT5-MTA.

In the case of `CNC(N)=Nc1ccc(C(=O)N(Cc2ccc(C(F)(F)F)cn2)[C@H](C)c2cc(F)ccc2F)cn1` [Compound 85], the figures for the IC50 in the assay with HCT116 MTAP KO, with HCT116-WT and against PRMT5-MTA were 11 nM, 290 nM and 4 nM, respectively.

`CNC(N)=Nc1ccc(C(=O)N(Cc2ccc(C(F)(F)F)cn2)N2CCc3ccccc32)cn1` [Compound 64]: the IC50 is 63 nM in the assay with HCT116 MTAP KO, 1960 nM in the assay on HCT116-WT and 3.2 nM against PRMT5-MTA.

On to `NC(=Nc1ccc(C(=O)N(Cc2ccc(C(F)(F)F)cn2)C2CCCc3ccccc32)cn1)NO` (stereo not drawn) [Compound 116], for which the IC50 in the assay on HCT116 MTAP KO is 63 nM; with HCT116-WT, 307 nM; against PRMT5-MTA, 3.4 nM.

With `CNC(N)=Nc1ccc(C(=O)N(Cc2ccc(C(F)(F)F)cn2)C2CCOc3ccccc32)cn1` (stereo not drawn) [Compound 86], the IC50 in the assay with HCT116 MTAP KO was determined as 60 nM; in the assay with HCT116-WT, 867 nM; against PRMT5-MTA, 0.7 nM.

Take `CN/C(N)=N\c1ccc(C(=O)N(Cc2ccc3nc(C)sc3c2)[C@H](C)c2ccccc2F)cn1` [Compound 78, (R,Z)-6-((amino(methylamino)methylene)amino)-N-(1-(2-fluorophenyl)ethyl)-N-((2-methylbenzo[d]thiazol-6-yl)methyl)nicotinamide]: the figures for the IC50 with HCT116 MTAP KO, with HCT116-WT and on PRMT5-MTA were 287 nM, 1860 nM and 7.7 nM, respectively.

Turning to `CNC(N)=Nc1ccc(C(=O)N(Cc2ccc(-c3cnc4c(cnn4C)c3)cn2)[C@H](C)c2ccccc2F)cn1` [Compound 73], the IC50 in the assay with HCT116 MTAP KO was determined as 72 nM; in the assay on HCT116-WT, 1080 nM; against PRMT5-MTA, 6.5 nM.

`CNC(N)=Nc1ccc(C(=O)N(Cc2ccc(C(F)(F)F)cn2)C(C)c2ccccc2C)cn1` (stereo not drawn) [Compound 41]: the half-maximal inhibitory concentration (IC50) with HCT116 MTAP KO came out at 931 nM; with HCT116-WT, 3710 nM; against PRMT5-MTA, 2.5 nM.

As for `CNC(N)=Nc1ccc(C(=O)N(Cc2ccc(C(F)(F)F)cn2)c2cccc3cccnc23)cn1` [Compound 45, 6-((amino(methylamino)methylene)amino)-N-(quinolin-8-yl)-N-((5-(trifluoromethyl)pyridin-2-yl)methyl)nicotinamide], the IC50 worked out at 24 nM in the assay with HCT116 MTAP KO, 275 nM with HCT116-WT and 1 nM against PRMT5-MTA.

Consider `CNC(N)=Nc1ccc(C(=O)N(Cc2ccc(C(F)(F)F)cn2)n2ccc3ccccc32)cn1` [Compound 62], for which the figures for the IC50 in the assay with HCT116 MTAP KO, with HCT116-WT and against PRMT5-MTA were 76 nM, 1790 nM and 4.1 nM, respectively.

For the molecule `CNC(N)=Nc1ccc(C(=O)N(Cc2ccc(C(F)(F)F)cn2)C(C)c2ncccc2F)cn1` (racemic) [Compound 58], the IC50 was determined as 34 nM with HCT116 MTAP KO, 971 nM in the assay on HCT116-WT and 0.4 nM on PRMT5-MTA.

`CNC(N)=Nc1ccc(C(=O)N(Cc2ccccn2)[C@H](C)c2ccccc2F)cn1` [Compound 111]: the values for the IC50 in the assay on HCT116 MTAP KO, in the assay on HCT116-WT and against PRMT5-MTA were 496 nM, 6450 nM and 3.7 nM, respectively.

In the case of `CCNC(N)=Nc1ccc(C(=O)N(Cc2ccc(C(F)(F)F)cn2)C(C)c2ncccn2)cn1` (stereo not drawn) [Compound 14], the IC50 with HCT116 MTAP KO came to 707 nM; with HCT116-WT, 3550 nM; at PRMT5-MTA it was 1.3 nM.

As to `CNC(N)=Nc1ccc(C(=O)N(Cc2ccc(C(F)(F)F)cn2)C2CCCc3cccc(F)c32)cn1` (stereo not drawn) [compound 93], the figures for the IC50 in the assay with HCT116 MTAP KO, in the assay with HCT116-WT and against PRMT5-MTA were 33 nM, 504 nM and 7.1 nM, respectively.

For the molecule `CN/C(N)=N\c1ccc(C(=O)N(Cc2ccc(-c3ccc(N4CCOCC4)nc3)cn2)[C@H](C)c2ccccc2F)cn1` [Compound 67, (R,Z)-6-((amino(methylamino)methylene)amino)-N-(1-(2-fluorophenyl)ethyl)-N-((6'-morpholino-[3,3'-bipyridin]-6-yl)methyl)nicotinamide], the half-maximal inhibitory concentration (IC50) is 145 nM with HCT116 MTAP KO, 672 nM in the assay on HCT116-WT and 5.7 nM against PRMT5-MTA.

In the case of `CN/C(N)=N\c1ccc(C(=O)N(Cc2ccc(C(F)(F)F)cn2)C2CCc3cccnc32)cn1` (stereo not drawn) [Compound 92, (Z)-6-((amino(methylamino)methylene)amino)-N-(6,7-dihydro-5H-cyclopenta[b]pyridin-7-yl)-N-((5-(trifluoromethyl)pyridin-2-yl)methyl)nicotinamide], the figures for the IC50 with HCT116 MTAP KO, in the assay on HCT116-WT and at PRMT5-MTA were 134 nM, 1480 nM and 1.6 nM, respectively.

Regarding `CN/C(N)=N\c1ccc(C(=O)N(Cc2ccc(C(C)(F)F)cn2)[C@H](C)c2ccccc2F)cn1` [Compound 76, (R,Z)-6-((amino(methylamino)methylene)amino)-N-((5-(1,1-difluoroethyl)pyridin-2-yl)methyl)-N-(1-(2-fluorophenyl)ethyl)nicotinamide], the IC50 in the assay on HCT116 MTAP KO turned out to be 32 nM; in the assay with HCT116-WT, 345 nM; on PRMT5-MTA, 5.4 nM.

`CNC(N)=Nc1ccc(C(=O)N(Cc2ccc3c(cnn3C)c2)[C@H](C)c2ccccc2F)cn1` [Compound 102]: the IC50 in the assay on HCT116 MTAP KO was 50 nM; with HCT116-WT, 667 nM; against PRMT5-MTA, 2.6 nM.

Consider `CNC(N)=Nc1ccc(C(=O)N(Cc2ccc(C(F)(F)F)cn2)C(C)c2ccccc2Cl)cn1` (stereo not drawn) [Compound 88], for which the IC50 with HCT116 MTAP KO came to 616 nM; with HCT116-WT, 3840 nM; against PRMT5-MTA it was 3.3 nM.

As to `CNC(N)=Nc1ccc(C(=O)N(Cc2ccc(C(F)(F)F)cn2)n2ccc3cccnc32)cn1` [Compound 56, 6-((amino(methylamino)methylene)amino)-N-(1H-pyrrolo[2,3-b]pyridin-1-yl)-N-[(5-(trifluoromethyl)pyridin-2-yl)methyl)nicotinamide], the IC50 in the assay on HCT116 MTAP KO was 36 nM; with HCT116-WT it was 536 nM; against PRMT5-MTA, 5.8 nM.
